Activity calls are given as the source filed them.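 Rule for the calls: active = compounds cutting yeast counts by over 60% at top dose, with positive span-based score; inactive = the rest.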

This data set concerns S. cerevisiae growth, flow cytometry event count, 7 d. Nature of the data set: S. cerevisiae cytotoxicity, flow cytometry event loss – powder samples, cytotoxicity control for yeast caloric restriction mimetic project, dose response (AID 504926). As to conditions: at 100 µM; active compounds read high.
As to `N#CC(c1nc2ccccc2nc1N1CCCC1)S(=O)(=O)c1ccccc1` (stereo not drawn), the event count decrease was 51% (inactive).

With `O=C(Nc1ccc2nccnc2c1)N1CCOCC1`, the event count decrease is -21% (inactive).

Turning to `Nc1cc2nc3ccccc3nc2cc1N`, the event count decrease is -45% (inactive).

On to `COc1ccc2nc3ccccc3nc2c1`, for which the event count decrease is 35% (inactive).

Take `O=C(Nc1ccc2nc3ccccc3nc2c1)c1ccc(Br)cc1`: the event count decrease is 68% (inactive).

As for `CCc1nc(NC(C)(C)C)c2cnn(-c3ccccc3)c2n1`, the event count decrease is 52% (inactive).

As for `Cn1c(=O)[nH]c2nncnc2c1=O`, the event count decrease is 24% (inactive).

On to `CN1CCN(C(=O)c2ccc3nccnc3c2)CC1`, for which the event count decrease is -332% (inactive).

As for `O=C(c1cccc2nccnc12)N1CCOc2ccccc21`, the event count decrease was -51% (inactive).

`CC(C)(C)Nc1ncnc2c1cnn2-c1ccccc1`: the event count decrease was 18% (inactive).

For `O=C(O)c1cnc2ccccc2n1`, the event count decrease is 7% (inactive).

In the case of `O=C(O)c1cccc2nccnc12`, the event count decrease was -180% (inactive).

`c1ccc2[nH]c3cc4ncnc4cc3nc2c1`: the event count decrease was -129% (inactive).

As for `O=C(Nc1ccc2nccnc2c1)N1CCN(c2ccccc2)CC1`, the event count decrease is -25% (inactive).

For `CCN(CC)C(=O)c1cccc2nc3ccccc3nc12`, the event count decrease is -36% (inactive).

Regarding `CCN(CC)c1ccc2nc3ccc(N)cc3[n+](-c3ccccc3)c2c1`, the event count decrease is -22% (inactive).

Consider `Cc1cc(C)cc(NC(=O)CN2CCN(c3ccccn3)CC2)c1`, for which the event count decrease is 2% (inactive).

Turning to `O=C(/C=C/c1ccccc1)NC(=S)NNC(=O)Cc1cccs1`, the event count decrease was 57% (inactive).

As for `COc1cccc2nc3cc(C)c(C)cc3nc12`, the event count decrease was 56% (inactive).

`O=C(NCc1ccccc1)c1ccc2nccnc2c1`: the event count decrease is 80% (inactive).

As for `COc1ccc2cc(C3CC(c4ccco4)=NN3S(=O)(=O)c3ccccc3)c(Cl)nc2c1` (stereo not drawn), the event count decrease is 26% (inactive).

With `CNc1ccc2nc3ccccc3[n+](C)c2c1`, the event count decrease is 45% (inactive).

Regarding `CN(C)C(=O)c1ccc2nccnc2c1`, the event count decrease is -100% (inactive).

On to `Oc1cccc2nc3ccccc3nc12`, for which the event count decrease is 69%.

With `CN(C)CCNc1ncnc2c1cnn2-c1ccc(Cl)cc1`, the event count decrease was 19% (inactive).

On to `C[C@@]12C(=O)OC(=O)[C@]1(C)C1CCC2O1`, for which the event count decrease was 88%.

On to `FC(F)(F)c1nc2cc3nc4ccccc4[nH]c3cc2n1`, for which the event count decrease was -72% (inactive).

Take `OCC[n+]1c2ccccc2nc2ccc(N3CCOCC3)cc21`: the event count decrease was 19% (inactive).

With `CCCCCNC(=O)C(=O)C1C(=O)Nc2ccccc21` (stereo not drawn), the event count decrease is 66%.

As for `O=C(Nc1ccc2nccnc2c1)c1cccc2nccnc12`, the event count decrease was 95% (inactive).

As to `N#CCc1nn(-c2ccccc2)c2ncnc(N)c12`, the event count decrease is 31% (inactive).

`O=C(c1cccc2nc3ccccc3nc12)N1CCOCC1`: the event count decrease is -106% (inactive).

For the molecule `O=C(c1ccc2nccnc2c1)N1CCCCC1`, the event count decrease was -141% (inactive).

`O=C(Nc1cccc2nccnc12)c1ccccc1`: the event count decrease is 16% (inactive).

Take `C=CCOn1c(=O)c(-c2cccs2)[n+]([O-])c2ccccc21`: the event count decrease was -43% (inactive).

As for `O=C(CN1CCN(c2ccccn2)CC1)Nc1ccccc1F`, the event count decrease was -51% (inactive).

For `O=C(c1ccc2nccnc2c1)N1CCN(c2ccccc2)CC1`, the event count decrease was -299% (inactive).

On to `O=c1[nH]c(O)c(C=Nc2ccc(F)c(Cl)c2)c(=O)[nH]1`, for which the event count decrease was 27% (inactive).

Consider `CCN(CC)C(=O)CSc1nnc(-c2cccc(OC)c2)o1`, for which the event count decrease is -66% (inactive).

With `CC(C)CSc1nnc2c3ccccc3n(C)c2n1`, the event count decrease was -5% (inactive).

For the molecule `COc1ccc2c(c1)c1nnc(SC)nc1n2C`, the event count decrease was -72% (inactive).

As to `O=C(O)c1ccc2nccnc2c1`, the event count decrease is 47% (inactive).

Take `O=C(Nc1ccc2nccnc2c1)NC1CCCCC1`: the event count decrease was 8% (inactive).

With `Cc1ccccc1NC(=O)c1cccc2nc3ccccc3nc12`, the event count decrease was -36% (inactive).

For the molecule `CCn1c2ccccc2c2n[nH]c(=S)nc21`, the event count decrease is -35% (inactive).

For `CC(C)(C)n1nc(-c2ccc(F)cc2)c2c(N)ncnc21`, the event count decrease was -56% (inactive).

With `O=C(/C=C/c1cccs1)NC(=S)NNC(=O)Cc1cccs1`, the event count decrease was 81%.

`Nc1ccc2nccnc2c1`: the event count decrease was -19% (inactive).

Turning to `CCN(CC)C(=O)c1ccc2nc3ccccc3nc2c1`, the event count decrease is -99% (inactive).

For `C[n+]1c2ccccc2nc2ccc(NCCO)cc21`, the event count decrease was 56% (inactive).

Regarding `Cc1cc2nc3ccc(N(C)C)cc3nc2cc1N`, the event count decrease was -28% (inactive).

For the molecule `CSc1nnc(-c2ccc([N+](=O)[O-])cc2)o1`, the event count decrease was 44% (inactive).

As for `COc1ccc2nc3ccccc3[n+]([O-])c2c1`, the event count decrease was 41% (inactive).

For the molecule `CC(C)OC(=O)c1ccc2nc3ccccc3nc2c1`, the event count decrease is 4% (inactive).

Turning to `C=CCSc1ccc(-c2ccc([N+](=O)[O-])cc2)o1`, the event count decrease was 40% (inactive).

For `O=C(OCc1c(F)cccc1Cl)c1cnc2ccccc2n1`, the event count decrease is 53% (inactive).

Turning to `CC(C)(C)NC(=O)Nc1ccc2nccnc2c1`, the event count decrease was -56% (inactive).

With `Cc1cc(C)c2[nH]c3nc(SCC(=O)O)nnc3c2c1`, the event count decrease was 16% (inactive).

`O=C(Nc1cccc(Cl)c1)Nc1ccc2nccnc2c1`: the event count decrease is -73% (inactive).

Turning to `O=C(c1cccc2nccnc12)N1CCN(c2ccccc2F)CC1`, the event count decrease was 55% (inactive).

Consider `O=C(Nc1ccccc1)c1ccc2nccnc2c1`, for which the event count decrease was -494% (inactive).

Consider `Cc1ccc(-c2nn(C(C)(C)C)c3ncnc(N)c23)cc1`, for which the event count decrease was -42% (inactive).

On to `O=C1c2c(O)ccc(O)c2C(=O)c2c(NCCNCCO)ccc(NCCNCCO)c21`, for which the event count decrease was -180% (inactive).

With `[O-][n+]1c2ccccc2[n+]([O-])c2cc(O)ccc21`, the event count decrease was 15% (inactive).

As to `COc1ccc2nc3ccccc3nc2c1NC(=O)c1ccccc1Cl`, the event count decrease is 43% (inactive).

On to `COc1ccc2nc3ccccc3nc2c1N`, for which the event count decrease was -32% (inactive).

For the molecule `Cn1c(O)c(C(=Nc2ccc(F)cc2)c2ccccc2Cl)c(=O)n(C)c1=O`, the event count decrease is -114% (inactive).

Consider `CC(=O)Nc1ccc2nc3ccccc3nc2c1`, for which the event count decrease is 43% (inactive).

Take `C#CCSc1ccc(-c2ccc([N+](=O)[O-])cc2)o1`: the event count decrease is 21% (inactive).

As to `c1ccc2nc3ccccc3nc2c1`, the event count decrease is 41% (inactive).

For the molecule `CCC(=Nc1ccccc1O)C1=C(O)CC(c2ccccc2)CC1=O` (stereo not drawn), the event count decrease was -11% (inactive).

Regarding `CC(C)(C)n1nc(-c2ccc(Cl)cc2)c2c(N)ncnc21`, the event count decrease is -87% (inactive).

With `CC(C)OC(=O)CSc1nnc(-c2ccc(Cl)cc2Cl)o1`, the event count decrease is 41% (inactive).

Values taken from PubChem BioAssay AID504926 (NMMLSC, 2011).
